Laboratory results: PubChem BioAssay AID1918945 (Molecular Pharmacology Branch, DTP, NCI, 2023)
Where “and” joins values, the source holds several entries; their conditions need not be identical. Equal values may be shown once.

Tested on: 883617-216-R-J1-PDC complex spheroid viability
Assay: Anticancer human tumor 883617-216-R-J1-PDC patient-derived bladder carcinoma cell line growth inhibition
Conditions: for viability, T/C: stronger effect = lower value
In short: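 Drug combinations with the LSD1 inhibitor iadademstat tested on tumor cells co-cultured as spheroids with endothelial cells and mesenchymal stem cells. Concentrations descended in half-log increments from clinical Cmax or 10 microM.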

[1] = curve of first compound, second compound 0.1 µM
[2] = curve of first compound, second compound 0.316 µM
[3] = curve of first compound, second compound 1 µM
[4] = curve of first compound, second compound 3.16 µM
[5] = curve of first compound, second compound 10 µM
[6] = second compound 0.1 µM, first compound 0.0316 µM
[7] = second compound 0.1 µM, first compound 0.1 µM
[8] = second compound 0.1 µM, first compound 0.316 µM
[9] = second compound 0.1 µM, first compound 1 µM
[10] = second compound 0.1 µM, first compound 3.16 µM
[11] = second compound 0.1 µM, first compound 10 µM
[12] = second compound 0.316 µM, first compound 0.0316 µM
[13] = second compound 0.316 µM, first compound 0.1 µM
[14] = second compound 0.316 µM, first compound 0.316 µM
[15] = second compound 0.316 µM, first compound 1 µM
[16] = second compound 0.316 µM, first compound 3.16 µM
[17] = second compound 0.316 µM, first compound 10 µM
[18] = second compound 1 µM, first compound 0.0316 µM
[19] = second compound 1 µM, first compound 0.1 µM
[20] = second compound 1 µM, first compound 0.316 µM
[21] = second compound 1 µM, first compound 1 µM
[22] = second compound 1 µM, first compound 3.16 µM
[23] = second compound 1 µM, first compound 10 µM
[24] = second compound 3.16 µM, first compound 0.0316 µM
[25] = second compound 3.16 µM, first compound 0.1 µM
[26] = second compound 3.16 µM, first compound 0.316 µM
[27] = second compound 3.16 µM, first compound 1 µM
[28] = second compound 3.16 µM, first compound 3.16 µM
[29] = second compound 3.16 µM, first compound 10 µM
[30] = second compound 10 µM, first compound 0.0316 µM
[31] = second compound 10 µM, first compound 0.1 µM
[32] = second compound 10 µM, first compound 0.316 µM
[33] = second compound 10 µM, first compound 1 µM
[34] = second compound 10 µM, first compound 3.16 µM
[35] = second compound 10 µM, first compound 10 µM
[36] = second compound 0.1 µM, first compound 0.00949 µM
[37] = second compound 0.1 µM, first compound 0.03 µM
[38] = second compound 0.1 µM, first compound 0.0949 µM
[39] = second compound 0.1 µM, first compound 0.3 µM
[40] = second compound 0.316 µM, first compound 0.00949 µM
[41] = second compound 0.316 µM, first compound 0.03 µM
[42] = second compound 0.316 µM, first compound 0.0949 µM
[43] = second compound 0.316 µM, first compound 0.3 µM
[44] = second compound 1 µM, first compound 0.00949 µM
[45] = second compound 1 µM, first compound 0.03 µM
[46] = second compound 1 µM, first compound 0.0949 µM
[47] = second compound 1 µM, first compound 0.3 µM
[48] = second compound 3.16 µM, first compound 0.00949 µM
[49] = second compound 3.16 µM, first compound 0.03 µM
[50] = second compound 3.16 µM, first compound 0.0949 µM
[51] = second compound 3.16 µM, first compound 0.3 µM
[52] = second compound 10 µM, first compound 0.00949 µM
[53] = second compound 10 µM, first compound 0.03 µM
[54] = second compound 10 µM, first compound 0.0949 µM
[55] = second compound 10 µM, first compound 0.3 µM
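Also: exposure lasted seven days after three days of spheroid growth.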
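For viability, T/C in this document: 100% = DMSO vehicle control luminescence.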

SMILES: COc1cc(C2c3cc4c(cc3C(OC3OC5COC(C)OC5C(O)C3O)C3COC(=O)C23)OCO4)cc(OC)c1O (configuration not stated)
- viability, T/C (compound 0.00949 µM): 94.6% and 80.4%
- viability, T/C (compound 0.03 µM): 99.6% and 65.2%
- viability, T/C (compound 0.0949 µM): 64.6% and 46.6%
- viability, T/C (compound 0.3 µM): 45.4% and 38.4%
- viability, T/C (compound 0.949 µM): 44.4% and 41.1%
- viability, T/C (compound 3 µM): 35.4% and 29.4%
- IC50 (curve of compound): 0.198 µM and 0.0876 µM

SMILES: Cn1ncnc1C1c2n[nH]c(=O)c3cc(F)cc(c23)NC1c1ccc(F)cc1 (configuration not stated)
- viability, T/C (compound 0.000316 µM): 104% and 89.5%
- viability, T/C (compound 0.001 µM): 104% and 89.1%
- viability, T/C (compound 0.00316 µM): 105% and 70.6%
- viability, T/C (compound 0.01 µM): 75.7% and 48.9%
- viability, T/C (compound 0.0316 µM): 64.4% and 38.5%
- viability, T/C (compound 0.1 µM): 54.2% and 38%

SMILES: CCc1c2c(nc3ccc(O)cc13)-c1cc3c(c(=O)n1C2)COC(=O)[C@]3(O)CC
- viability, T/C (compound 0.000949 µM): 34.5% and 24.9%
- viability, T/C (compound 0.003 µM): 27.7% and 18.2%
- viability, T/C (compound 0.00949 µM): 22.8% and 18.7%
- viability, T/C (compound 0.03 µM): 24.2% and 13%
- viability, T/C (compound 0.0949 µM): 1.74% and 0.3%
- viability, T/C (compound 0.3 µM): 0.21% and 0.19%
- IC50 (curve of compound): < 0.000949 µM

SMILES: O=C(c1cc(Cc2n[nH]c(=O)c3ccccc23)ccc1F)N1CCN(C(=O)C2CC2)CC1 + NC1CCC(NC2CC2c2ccccc2)CC1
- IC50 [1]: 2.73 µM
- IC50 [2]: 8.24 µM
- IC50 [3]: 3.58 µM
- IC50 [4]: 3.79 µM
- IC50 [5]: 8.94 µM
- viability, T/C [6]: 100%
- viability, T/C [7]: 93%
- viability, T/C [8]: 93.3%
- viability, T/C [9]: 65.5%
- viability, T/C [10]: 49%
- viability, T/C [11]: 44.4%
- viability, T/C [12]: 107%
- viability, T/C [13]: 102%
- viability, T/C [14]: 99.7%
- viability, T/C [15]: 76.2%
- viability, T/C [16]: 60.1%
- viability, T/C [17]: 47.5%
- viability, T/C [18]: 90.8%
- viability, T/C [19]: 89.9%
- viability, T/C [20]: 90%
- viability, T/C [21]: 76.1%
- viability, T/C [22]: 50.8%
- viability, T/C [23]: 44.5%
- viability, T/C [24]: 94.1%
- viability, T/C [25]: 98.5%
- viability, T/C [26]: 88.6%
- viability, T/C [27]: 73.3%
- viability, T/C [28]: 51.3%
- viability, T/C [29]: 42.5%
- viability, T/C [30]: 104%
- viability, T/C [31]: 96.3%
- viability, T/C [32]: 89.7%
- viability, T/C [33]: 75.7%
- viability, T/C [34]: 58.1%
- viability, T/C [35]: 49.5%

SMILES: COc1cc(Nc2ncc3c(n2)-c2ccc(Cl)cc2C(c2c(F)cccc2OC)=NC3)ccc1C(=O)O
- viability, T/C (compound 0.00316 µM): 99.2% and 68.6%
- viability, T/C (compound 0.01 µM): 73.5% and 63.5%
- viability, T/C (compound 0.0316 µM): 53.3% and 44%
- viability, T/C (compound 0.1 µM): 49% and 36.2%
- viability, T/C (compound 0.316 µM): 45.1% and 34.5%
- viability, T/C (compound 1 µM): 48.5% and 34.6%
- IC50 (curve of compound): 0.0669 µM and 0.0223 µM

SMILES: CC(C)c1c(-c2ccccc2)nc2c(C#N)c[nH]n2c1=O + NC1CCC(NC2CC2c2ccccc2)CC1
- IC50 [1]: > 10 µM
- IC50 [2]: > 10 µM
- IC50 [3]: > 10 µM
- IC50 [4]: > 10 µM
- IC50 [5]: > 10 µM
- viability, T/C [6]: 106%
- viability, T/C [7]: 102%
- viability, T/C [8]: 101%
- viability, T/C [9]: 103%
- viability, T/C [10]: 97.5%
- viability, T/C [11]: 93.8%
- viability, T/C [12]: 107%
- viability, T/C [13]: 109%
- viability, T/C [14]: 108%
- viability, T/C [15]: 105%
- viability, T/C [16]: 103%
- viability, T/C [17]: 95%
- viability, T/C [18]: 97.3%
- viability, T/C [19]: 91.8%
- viability, T/C [20]: 101%
- viability, T/C [21]: 95%
- viability, T/C [22]: 93.6%
- viability, T/C [23]: 86%
- viability, T/C [24]: 104%
- viability, T/C [25]: 99.7%
- viability, T/C [26]: 97.8%
- viability, T/C [27]: 98.2%
- viability, T/C [28]: 91.2%
- viability, T/C [29]: 89.9%
- viability, T/C [30]: 103%
- viability, T/C [31]: 106%
- viability, T/C [32]: 112%
- viability, T/C [33]: 98.2%
- viability, T/C [34]: 95.2%
- viability, T/C [35]: 86.1%

SMILES: CCc1c2c(nc3ccc(O)cc13)-c1cc3c(c(=O)n1C2)COC(=O)[C@]3(O)CC + NC1CC1c1ccc(-c2cccc(O)c2)cc1
- IC50 [1]: < 0.000949 µM
- IC50 [2]: < 0.000949 µM
- IC50 [3]: < 0.000949 µM
- IC50 [4]: < 0.000949 µM
- IC50 [5]: < 0.000949 µM
- viability, T/C (second compound 0.1 µM, first compound 0.000949 µM): 25.1%
- viability, T/C (second compound 0.1 µM, first compound 0.003 µM): 20.4%
- viability, T/C [36]: 17.5%
- viability, T/C [37]: 14%
- viability, T/C [38]: 0.36%
- viability, T/C [39]: 0.15%
- viability, T/C (second compound 0.316 µM, first compound 0.000949 µM): 25.6%
- viability, T/C (second compound 0.316 µM, first compound 0.003 µM): 21.7%
- viability, T/C [40]: 19.9%
- viability, T/C [41]: 13%
- viability, T/C [42]: 0.27%
- viability, T/C [43]: 0.12%
- viability, T/C (second compound 1 µM, first compound 0.000949 µM): 25.8%
- viability, T/C (second compound 1 µM, first compound 0.003 µM): 21.6%
- viability, T/C [44]: 24.4%
- viability, T/C [45]: 14.2%
- viability, T/C [46]: 0.38%
- viability, T/C [47]: 0.88%
- viability, T/C (second compound 3.16 µM, first compound 0.000949 µM): 21.6%
- viability, T/C (second compound 3.16 µM, first compound 0.003 µM): 18.4%
- viability, T/C [48]: 19.6%
- viability, T/C [49]: 14.4%
- viability, T/C [50]: 0.18%
- viability, T/C [51]: 0.15%
- viability, T/C (second compound 10 µM, first compound 0.000949 µM): 22.1%
- viability, T/C (second compound 10 µM, first compound 0.003 µM): 19.7%
- viability, T/C [52]: 17.4%
- viability, T/C [53]: 13.8%
- viability, T/C [54]: 0.25%
- viability, T/C [55]: 0.21%

SMILES: CCN(c1cc(-c2ccc(CN3CCOCC3)cc2)cc(C(=O)NCc2c(C)cc(C)[nH]c2=O)c1C)C1CCOCC1 + NC1CCC(NC2CC2c2ccccc2)CC1
- IC50 [1]: > 3 µM
- IC50 [2]: > 3 µM
- IC50 [3]: > 3 µM
- IC50 [4]: > 3 µM
- IC50 [5]: > 3 µM
- viability, T/C [36]: 96.4%
- viability, T/C [37]: 85%
- viability, T/C [38]: 86.9%
- viability, T/C [39]: 84.7%
- viability, T/C (second compound 0.1 µM, first compound 0.949 µM): 90.7%
- viability, T/C (second compound 0.1 µM, first compound 3 µM): 80.8%
- viability, T/C [40]: 95.8%
- viability, T/C [41]: 98.8%
- viability, T/C [42]: 93.1%
- viability, T/C [43]: 87.6%
- viability, T/C (second compound 0.316 µM, first compound 0.949 µM): 89.1%
- viability, T/C (second compound 0.316 µM, first compound 3 µM): 86%
- viability, T/C [44]: 90.2%
- viability, T/C [45]: 89.5%
- viability, T/C [46]: 83.8%
- viability, T/C [47]: 88.4%
- viability, T/C (second compound 1 µM, first compound 0.949 µM): 90%
- viability, T/C (second compound 1 µM, first compound 3 µM): 86.3%
- viability, T/C [48]: 94.5%
- viability, T/C [49]: 87.7%
- viability, T/C [50]: 88.3%
- viability, T/C [51]: 89.9%
- viability, T/C (second compound 3.16 µM, first compound 0.949 µM): 87.9%
- viability, T/C (second compound 3.16 µM, first compound 3 µM): 93.9%
- viability, T/C [52]: 97.8%
- viability, T/C [53]: 91.7%
- viability, T/C [54]: 90.8%
- viability, T/C [55]: 96.2%
- viability, T/C (second compound 10 µM, first compound 0.949 µM): 94.5%
- viability, T/C (second compound 10 µM, first compound 3 µM): 92.8%
